{"source": "patent US20040192765A1", "about": "(H. Lundbeck A/S, priority 2001, published 2004)", "type_in_all_cases": "in vivo", "key": {"[1]": {"test_system": "Chronic Mild Stress model", "experiment": "Chronic Mild Stress model", "conditions": "animal models, compared with citalopram-racemate", "description": "(§1) This has i.a. been found in the Chronic Mild Stress model (Wiliner P., Psychopharmachology 1997, 134, 319-329)."}, "[2]": {"experiment": "pharmacological and clinical studies / animal models (summary statements)", "description": "This may be shown in functional in-vivo pharmacological models and studies of 5-HT-reuptake effect and or in behavior models, for example depression models."}, "[3]": {"experiment": "fixed dose studies (MADRS rating scale and Clinical Global Impression)", "conditions": "escitalopram in a dose of 10 mg compared with citalopram 40 mg"}, "[4]": {"test_system": "primary care patients with major depression disorder", "experiment": "8-week, double-blind, randomised, placebo-controlled, flexible-dose clinical study", "description": "as §1\nA total of 471 patients were randomised into the study. The all-patient-treated set comprised 469 patients and the full-analysis set comprised 468 patients.\nThere was an approximately 3 to 1 ratio of women to men in each treatment group, and almost all patients were Caucasian. The mean age was 43 years (SD 11). At baseline, the mean MADRS total score was approximately 29 for the treatment group, which signifies moderate to severely ill patients."}}}
{"smiles": "CN(C)CCC[C@@]1(c2ccc(F)cc2)OCc2cc(C#N)ccc21", "note": "[escitalopram, (S)-1-[3-(dimethylamino)propyl]-1-(4-fluorophenyl)-1,3-dihydro-5-isobenzofurancarbonitrile]", "values": [{"measurement": "speed of response", "setting": "[1]", "value": "faster response than citalopram-racemate"}, {"measurement": "onset of action", "setting": "[2]; animal models and clinical studies, compared with the racemate and other SSRIs", "value": "faster onset of action"}, {"measurement": "potency relative to the racemate", "setting": "[2]; pharmacological and clinical studies", "value": "substantially more than two times as potent as the racemate"}, {"measurement": "extent of response", "setting": "[2]; various animal models", "value": "more full response"}, {"measurement": "effect as determined by MADRS rating scale and Clinical Global Impression (severity and improvement)", "setting": "[3]", "value": "at least same effect as citalopram in a dose of 40 mg"}, {"measurement": "onset of effect", "setting": "[4]; 10 mg escitalopram, 20 mg citalopram, versus placebo", "value": "showed effects after one week"}, {"measurement": "adjusted mean change in MADRS total score versus placebo (significance)", "setting": "[4]; Week 1 (p=0.023) to Week 4 (p=0.002), observed cases", "value": "significantly superior therapeutic effect"}, {"measurement": "CGI improvement and severity subscale versus placebo", "setting": "[4]; Week 4, last observation carried forward", "value": "statistically significantly superior to placebo"}, {"measurement": "adjusted mean change in MADRS total score versus placebo", "setting": "[4]; Week 4, last observation carried forward, 10 mg escitalopram, 20 mg citalopram, escitalopram p=0.002, citalopram statistically insignificant", "value": 2.7, "unit": "points"}, {"measurement": "CGI improvement and severity subscale versus placebo", "setting": "[4]; from Week 1 onwards (p<0.05), observed cases, 4-week period", "value": "significantly superior to placebo"}]}
